How the values were obtained:
[1] = biological target: T1, Full-length phosphorylated PDK1 (Homo sapiens, UniProt O15530); experiment: Fluorescence polarization PIF-tide binding assay; conditions: PDK1 saturating amounts of compound, FIG. 13C
T1 sequence (O15530 1-556): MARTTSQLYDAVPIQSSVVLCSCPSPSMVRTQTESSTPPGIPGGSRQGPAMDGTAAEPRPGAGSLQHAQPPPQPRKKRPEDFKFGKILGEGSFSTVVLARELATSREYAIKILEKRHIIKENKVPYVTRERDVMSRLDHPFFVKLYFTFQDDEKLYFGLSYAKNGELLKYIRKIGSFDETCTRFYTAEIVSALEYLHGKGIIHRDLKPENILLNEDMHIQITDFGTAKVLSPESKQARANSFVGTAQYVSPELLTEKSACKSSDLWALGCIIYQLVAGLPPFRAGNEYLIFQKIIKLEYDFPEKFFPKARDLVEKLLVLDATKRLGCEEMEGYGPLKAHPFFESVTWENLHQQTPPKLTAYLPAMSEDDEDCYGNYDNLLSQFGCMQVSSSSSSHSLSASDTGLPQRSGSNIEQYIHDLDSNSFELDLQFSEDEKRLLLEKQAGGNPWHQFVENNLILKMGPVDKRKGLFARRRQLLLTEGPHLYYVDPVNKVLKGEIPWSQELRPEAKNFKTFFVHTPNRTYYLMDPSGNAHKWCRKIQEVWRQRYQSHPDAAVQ

U-2932 = experiment: MTS cell proliferation assay, U-2932; assay type: cell-based; conditions: Homo sapiens, U2932; U-2932, 72 hr
Procedure: Cell proliferation was measured using the CellTiter 96 Aqueous Non-Radioactive Cell Proliferation Assay (Promega). The CellTiter 96® AQueous Assay is composed of solutions of a tetrazolium compound [3-(4,5-dimethylthiazol-2-yl)-5-(3-carboxymethoxyphenyl)-2-(4-sulfophenyl)-2H-tetrazolium, inner salt; MTS] and an electron coupling reagent (phenazine methosulfate) PMS. MTS is bioreduced by cells into a formazan product that is soluble in tissue culture medium. The absorbance of the formazan product at 490 nm can be measured directly from assay plates without additional processing. The quantity of formazan product as measured by the amount of 490 nm absorbance is directly proportional to the number of living cells in culture. Cells were seeded into 96-well or 384-well clear plates in a volume of 200 μL (96-well) or 50 μL (384-well) at optimized densities ranging from 1,000 to 40,000 cells per well for 96-well plates or 1,200 to 25,000 cells per well for 384-well plates depending on cell-line. After 4-6 hr recovery, serially diluted compounds in DMSO were added to the cells using (0.1% v/v final DMSO concentration). Cells were then grown at 37° C. in a humidified incubator with 5% CO2 for 72 hr. A 20:1 [3-(4,5-dimethylthiazol-2-yl)-5-(3-carboxymethoxyphenyl)-2-(4-sulfophenyl)-2H-tetrazolium](MTS):phenazine methosulfate (PMS) solution in DPBS was made immediately before use, added to each well, and cells were incubated for 1.5 hr at 37° C. The absorbance at 490 nm was then measured using a platereader. Absorbance values were normalized as percent of control (cells incubated in the presence of 0.1% v/v DMSO). Sigmoidal dose-response curves were plotted using log(inhibitor) vs. response—Variable slope (four parameters) model with a top value constrained to 100% (GraphPad Prism version 6.00 for Windows, GraphPad Software, La Jolla California USA). […] Curves for compounds that reached a plateau were matched exactly to the measurement points. […] To determine potential of compounds of the invention to affect viability of hematological cancers, cell lines representing various tumor types were selected and tested. Human cell lines tested were: MOLM-13 (acute myeloid leukemia (AML)), MV4-11 (AML), U-2932 (ABC-diffuse large B cell lymphoma), U-937 (histiocytic lymphoma), U-266 (multiple myeloma), RPMI-8226 (multiple myeloma), CMK (megakaryoblastic cell line), SU-DHL-4 (GCB-diffuse large B cell lymphoma), KG1 (AML), Mec-1 (chronic B-cell leukemia), MOLM-16 (AML), Jeko (B-cell lymphoma), WSU-DLCL2 (B-cell lymphoma), JJN3 (plasma cell leukemia), SU-DHL-6 (GCB-diffuse large B cell lymphoma), and Z-138 (mantle cell lymphoma). In addition, two murine cell lines were tested: A20 […].

[2] = biological target: T1, Full-length phosphorylated PDK1; experiment: FRET-based PIF-tide binding assay; conditions: 10 nM compound where stated, FIG. 13D
Full-length PDK1 = biological target: T2, Full-length PDK1 (Homo sapiens, UniProt O15530); experiment: PDK1 kinase activity assay (FRET); assay type: biochemical; conditions: for inhibition of PDK1 kinase activity: phosphorylated and un-phosphorylated PDK1, FIGS. 2A and 2B
T2 construct: Full-length PDK1 protein (SignalChem) was dephosphorylated; purchased SignalChem
T2 sequence (O15530 1-556): T1 sequence (O15530 1-556)
Procedure: Full-length PDK1 protein (SignalChem) was dephosphorylated using GST-k-phosphatase (produced in house), which was subsequently removed using glutathione-agarose beads (Gold Biotechnology). […] Tb-pCrosstide antibody (ThermoFisher) was then added to a final concentration of 2 nM and the reaction was incubated for an additional 30 min. Fluorescence resonance energy transfer (FRET) was measured using a Tecan Infinite F500 plate reader with λex=340 nm, λem1=485 nm, λem2=520 nm.

Z-138 = experiment: MTS cell proliferation assay, Z-138; assay type: cell-based; conditions: Homo sapiens; Z-138, 72 hr
Procedure: (§1) Cell proliferation was measured using the CellTiter 96 Aqueous Non-Radioactive Cell Proliferation Assay (Promega). The CellTiter 96® AQueous Assay is composed of solutions of a tetrazolium compound [3-(4,5-dimethylthiazol-2-yl)-5-(3-carboxymethoxyphenyl)-2-(4-sulfophenyl)-2H-tetrazolium, inner salt; MTS] and an electron coupling reagent (phenazine methosulfate) PMS. MTS is bioreduced by cells into a formazan product that is soluble in tissue culture medium. The absorbance of the formazan product at 490 nm can be measured directly from assay plates without additional processing. The quantity of formazan product as measured by the amount of 490 nm absorbance is directly proportional to the number of living cells in culture. Cells were seeded into 96-well or 384-well clear plates in a volume of 200 μL (96-well) or 50 μL (384-well) at optimized densities ranging from 1,000 to 40,000 cells per well for 96-well plates or 1,200 to 25,000 cells per well for 384-well plates depending on cell-line. After 4-6 hr recovery, serially diluted compounds in DMSO were added to the cells using (0.1% v/v final DMSO concentration). Cells were then grown at 37° C. in a humidified incubator with 5% CO2 for 72 hr. A 20:1 [3-(4,5-dimethylthiazol-2-yl)-5-(3-carboxymethoxyphenyl)-2-(4-sulfophenyl)-2H-tetrazolium](MTS):phenazine methosulfate (PMS) solution in DPBS was made immediately before use, added to each well, and cells were incubated for 1.5 hr at 37° C. The absorbance at 490 nm was then measured using a platereader. Absorbance values were normalized as percent of control (cells incubated in the presence of 0.1% v/v DMSO). Sigmoidal dose-response curves were plotted using log(inhibitor) vs. response—Variable slope (four parameters) model with a top value constrained to 100% (GraphPad Prism version 6.00 for Windows, GraphPad Software, La Jolla California USA). […] Curves for compounds that reached a plateau were matched exactly to the measurement points. […]

WSU-DLCL2 = experiment: MTS cell proliferation assay, WSU-DLCL2; assay type: cell-based; conditions: Homo sapiens, WSUDLCL2; WSU-DLCL2, 72 hr
Procedure: as §1

MOLM-16 = experiment: MTS cell proliferation assay, MOLM-16; assay type: cell-based; conditions: Homo sapiens, MOLM16; MOLM-16, 72 hr
Procedure: as §1

JJN3 = experiment: MTS cell proliferation assay, JJN3; assay type: cell-based; conditions: Homo sapiens, JJN-3; JJN3, 72 hr
Procedure: as §1

CMK = experiment: MTS cell proliferation assay, CMK; assay type: cell-based; conditions: Homo sapiens, 72 hr
Procedure: as §1

In the case of `CNc1n[nH]c2ncc(-c3ccc(CNc4ncc(C#N)nc4C(=O)N[C@@H](C)c4ccc(F)c(F)c4)cc3)cc12` [Compound 2, 6-Cyano-3-[4-(3-methylamino-1H-pyrazolo[3,4-b]pyridin-5-yl)-benzylamino]-pyrazine-2-carboxylic acid [1-(3,4-difluoro-phenyl)-ethyl]-amide], the “PIF-tide binding to PDK1 (fluorescence polarization, words)” value [1] is reported as “significant inhibition of PIF-tide binding”, the EC50 (U-2932) is reported as 56 nM and the “FRET between PDK1 and PIF-tide” value [2] is reported as “near complete inhibition”. The “biochemical potency compared to GSK2334470” value (Full-length PDK1) was “comparable biochemical potency”, the “inhibition of PDK1 kinase activity” value (Full-length PDK1) was “potent inhibitors of both phosphorylated and un-phosphorylated PDK1” and the EC50 (Z-138) was 684 nM. The EC50 (WSU-DLCL2) was 354 nM, the EC50 (MOLM-16) was 227 nM and the EC50 (JJN3) was 453 nM. The EC50 (CMK) was 182 nM.
For `C[C@H](NC(=O)c1nc(C#N)cnc1NCc1ccc(-c2cnc3[nH]nc(N)c3n2)cc1)c1ccc(F)c(F)c1` [Compound 1, 3-[4-(3-Amino-1H-pyrazolo[3,4-b]pyrazin-5-yl)-benzylamino]-6-cyano-pyrazine-2-carboxylic acid [1-(3,4-difluoro-phenyl)-ethyl]-amide], the “PIF-tide binding to PDK1 (fluorescence polarization, words)” value [1] was “significant inhibition of PIF-tide binding”, the EC50 (U-2932) was 108 nM and the “FRET between PDK1 and PIF-tide” value [2] was “near complete inhibition”. The “inhibition of PDK1 kinase activity” value (Full-length PDK1) was “potent inhibitors of both phosphorylated and un-phosphorylated PDK1”, the EC50 (Z-138) was 718 nM and the EC50 (WSU-DLCL2) was 543 nM. The EC50 (MOLM-16) was 248 nM, the EC50 (JJN3) was 846 nM and the EC50 (CMK) was 222 nM.
